Experimental data from US20090282496A1, “Androgen Receptor Related Methods for Treating Bladder Cancer” (University of Rochester Medical Center, priority 2008, published 2009).
Marks after values point to notes of the source that are not given here.

How the values were obtained:
TCC-SUP cells = assay: Cell proliferation assay (MTT), TCC-SUP; assay type: cell-based, human; settings: 6 days; for effect on growth: TCC-SUP subline that expresses AR-siRNA
UMUC3 cells = assay: Cell proliferation assay (MTT), UMUC3; assay type: cell-based, human; settings: 6 days; for effect on growth: UMUC3 subline that expresses AR-siRNA
[1] = tested on: AR-negative bladder cancer cell lines (5637); assay: Cell proliferation assay (MTT), AR-negative bladder cancer cell lines; assay type: cell-based, human; settings: AR-negative 5637 subline that expresses AR-siRNA, 6 days
AR = target: T1, AR (Homo sapiens, UniProt P10275); settings: TCC-SUP and UMUC3 cells, MMTV-Luc, 24 h
T1 sequence (P10275 1-920): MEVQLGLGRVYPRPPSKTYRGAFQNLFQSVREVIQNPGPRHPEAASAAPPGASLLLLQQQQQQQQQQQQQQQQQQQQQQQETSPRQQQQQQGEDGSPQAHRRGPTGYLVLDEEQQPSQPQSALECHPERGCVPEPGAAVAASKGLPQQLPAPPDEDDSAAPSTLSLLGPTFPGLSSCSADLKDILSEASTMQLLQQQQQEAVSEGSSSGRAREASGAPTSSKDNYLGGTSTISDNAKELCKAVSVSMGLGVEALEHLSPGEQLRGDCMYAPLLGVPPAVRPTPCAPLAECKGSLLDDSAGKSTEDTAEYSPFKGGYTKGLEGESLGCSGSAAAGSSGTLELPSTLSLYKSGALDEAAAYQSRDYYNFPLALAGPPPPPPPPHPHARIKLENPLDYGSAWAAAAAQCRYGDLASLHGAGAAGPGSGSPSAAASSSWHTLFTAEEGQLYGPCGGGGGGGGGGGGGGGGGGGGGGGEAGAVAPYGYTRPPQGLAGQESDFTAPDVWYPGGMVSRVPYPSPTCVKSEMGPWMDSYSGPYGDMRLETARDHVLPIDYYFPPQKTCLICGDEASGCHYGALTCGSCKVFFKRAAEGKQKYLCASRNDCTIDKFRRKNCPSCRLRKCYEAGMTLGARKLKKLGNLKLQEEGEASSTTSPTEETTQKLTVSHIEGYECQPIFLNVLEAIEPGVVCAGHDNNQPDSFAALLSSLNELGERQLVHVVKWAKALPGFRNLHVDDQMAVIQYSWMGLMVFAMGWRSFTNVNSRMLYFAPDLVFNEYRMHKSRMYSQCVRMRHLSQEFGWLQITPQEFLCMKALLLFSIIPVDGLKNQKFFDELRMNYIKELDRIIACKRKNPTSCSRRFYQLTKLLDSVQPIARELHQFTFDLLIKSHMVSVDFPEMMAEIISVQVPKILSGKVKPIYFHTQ
Experimental: Cell transfections and luciferase assays were performed as previously described (Miyamoto et al., Int. J. Cancer, 117:866-72 (2005) and Miyamoto et al., Proc. Natl. Acad. Sci. USA, 100:4440-4 (2003)). Briefly, bladder cancer cells at a density of 50-60% confluence in 12-well tissue culture plates were transfected with 1.5 μg of plasmid DNA using SuperFect transfection reagent (Qiagen) according to the manufacturer's instructions. […] Cells were harvested, lysed, and assayed for luciferase activity. A Dual-Luciferase Reporter Assay kit (Promega) and luminometer (TD-20/20, Turner BioSystems) were used to determine the level of luciferase activity in the cell extracts.

[2] = tested on: BBN-induced bladder tumors; settings: wild-type mice, drinking water with BBN at 0.01-0.05% for 10-20 weeks; previous studies; cited from earlier work
[3] = tested on: BBN-induced bladder tumors; settings: mouse, in vivo
Experimental: (§2) Animal care was provided in accordance with institutional guidelines. Five to six weeks old ARKO mice (male: n=48; female: n=24) and their wild-type littermates (male: n=48; female: n=24) were supplied ad libitum with tap water containing 0.05% BBN (TCI America) in opaque bottles for 12 weeks, and thereafter with tap water without BBN. To estimate BBN intake, the drinking water was prepared fresh twice a week, and consumption was recorded. […] Before starting BBN treatment, wild-type male mice received surgical castration (n=24) or sham surgery (n=24) at 5 weeks of age. […] Every 90 days, these pellets were replaced. At 20 (n=4 in each group), 30 (n=8 in each group), or 40 (n=12 in each group) weeks of age, the mice were killed by administration of pentobarbital followed by rapid cervical dislocation. Urinary tract specimens were harvested. These specimens were preserved in phosphate-buffered 10% formalin, embedded in paraffin, sectioned, stained with hematoxylin and eosin, and examined microscopically to identify carcinoma or other pathological changes. Paraffin-embedded sections were also used for immunohistochemical analysis. Part of each specimen was rapidly frozen in liquid nitrogen and stored at −80° C. for subsequent RNA analysis.
(§3) Sections (5-7 μm thick) from paraffin-embedded mouse urinary tract tissue and xenograft tumors (see below) were deparaffinized in xylene and rehydrated in a graded ethanol series. Sections were then incubated in 3% hydrogen peroxide to block endogenous peroxidase, with a protein blocking solution containing preimmune rabbit serum, and finally with a 1:500 dilution of primary antibody (rabbit polyclonal anti-proliferating cell nuclear antigen (PCNA) (Santa Cruz). Samples were incubated with peroxidase-conjugated anti-rabbit IgG. The slides were rinsed with PBS, incubated with diaminobenzidine, and finally counterstained with hematoxylin. The TUNEL assay was performed on additional rehydrated sections from paraffin-embedded mouse urinary tract tissue and xenograft tumor using the Fluorescein-FragEL DNA Fragmentation Detection kit (Calbiochem), according to the manufacturer's instructions, followed by counterstaining for DNA with DAPI. The percentage of apoptotic cells was determined by fluorescence microscopy. The percentage of PCNA- and TUNEL-positive cells in 1000 cells counted on each specimen were used to determine the amount of cell proliferation and apoptotic indices, respectively.

[4] = tested on: BBN-induced bladder cancer; settings: rats; castration had a much stronger effect; cited from earlier work
[5] = tested on: TCC-SUP and UMUC3 stable sublines (control-siRNA, AR-siRNA); assay: Tumor incidence (tumorigenicity) study of control-siRNA and AR-siRNA sublines in nude mice; assay type: in vivo, male athymic nude mouse
Text: The reporter plasmids [mouse mammary tumor virus (MMTV)-luciferase (Luc) and (ARE)4-Luc (provided by Dr. Michael L. Lu at Harvard Medical School)] as well as a retrovirus vector pMSCV/U6 (Clontech)-AR-siRNA were described in previous studies (Miyamoto et al., Int. J. Cancer, 117:866-72 (2005) and Yeh et al., J. Exp. Med. 198:1899-908 (2003)). Using SuperFect reagent (Qiagen), stable cell lines expressing the AR-siRNA were established by transfecting pMSCV/U6-AR-siRNA into Phi-NX packaging retrovirus producer cells (developed by the Nolan Lab at Stanford University). The target cells (i.e., TCC-SUP, UMUC3, and 5637) were then cultured in the presence of the viral supernatant, and infected cells were selected with puromycin (Sigma).
(§1) Bladder cancer cell lines (TCC-SUP, UMUC3, and 5637) were harvested, washed twice with PBS, and resuspended in Matrigel (BD Bioscience) at a final concentration of 1×10^7 cells/mL. Cells (1×10^6 cells in 100 μl per site) were then injected subcutaneously into the right and left flanks of 6-week-old male athymic nude mouse. Treatment (castration or sham surgery, flutamide [0.5 mg/mouse] or placebo pellet injection, and the recently developed anti-AR molecule ASC-J9 (50 mg/Kg or DMSO injection) (Ohtsu et al., J. Med. Chem., 45:5037-42 (2002)) was initiated either (1) at the same time as tumor cell injection (for tumor incidence studies, n=8 mice in each group) or (2) when the sizes of all tumors reached 40 mm^3 (for tumor progression studies, n=12 tumors from 6 mice in each group). Hormonal pellets were replaced as required (every 90 days). Tumor weight was calculated by the following formula: tumor weight (mg)=tumor length (mm)×[tumor width (mm)]^2×0.5 (Geram et al., Cancer Chemother. Rep., 3:47-52 (1972)). Using calipers, each tumor was measured twice a week until either the tumor size reached 40 mm^3 (for tumor incidence study) (Chen et al., Nat. Med., 10:33-9 (2004)), or until the tumor exceeded 10% of the animal's body weight, at which time the mouse was killed (for tumor progression study).

[6] = tested on: AR-negative 5637 xenograft tumors; assay: 5637 mouse xenograft, tumor progression study; assay type: in vivo, male athymic nude mouse; settings: androgen deprivation therapy (castration and/or flutamide) at 12 weeks
Experimental: Bladder cancer cell lines (TCC-SUP, UMUC3, and 5637) were harvested, washed twice with PBS, and resuspended in Matrigel (BD Bioscience) at a final concentration of 1×10^7 cells/mL. Cells (1×10^6 cells in 100 μl per site) were then injected subcutaneously into the right and left flanks of 6-week-old male athymic nude mouse. […] Med. […] Hormonal pellets were replaced as required (every 90 days). Tumor weight was calculated by the following formula: tumor weight (mg)=tumor length (mm)×[tumor width (mm)]^2×0.5 (Geram et al., Cancer Chemother. Rep., 3:47-52 (1972)).

TCC-SUP xenograft tumors = assay: TCC-SUP mouse xenograft, tumor progression study; assay type: in vivo, male athymic nude mouse
Text: Total RNA from mouse bladder and xenograft tumor tissues and cultured cells was extracted by the acid guanidinium-phenol-chloroform method as previously described (Miyamoto et al., Cancer, 75:2565-70 (1995)) or by using Trizol reagent (Life Science). Isolated RNAs were reverse transcribed to cDNA using random hexamers as described (Miyamoto et al., Cancer, 75:2565-70 (1995) and Miyoshi et al., Prostate, 56:280-6 (2003)), and amplified by PCR using a primer set specific for the AR gene (Miyoshi et al., Prostate, 56:280-6 (2003)). Using the iCycler (Bio-Rad) and the methods previously described by Miyoshi et al., Prostate, 56:280-6 (2003), real-time quantitative PCR analysis of AR, basic fibroblast growth factor (bFGF), vascular endothelial growth factor (VEGF), and matrix metalloproteinase-9 (MMP-9) was performed on the tissue samples from mouse xenograft tumors. The following PCR primers were designed using Beacon Designer 2 (Premier Biosoft): bFGF: 5′-[…]-3′ (SEQ ID NO. 1) and 5′-[…]-3′ (SEQ ID NO. 2), VEGF: 5′-[…]-3′ (SEQ ID NO. 3) and 5′-[…]-3′ (SEQ ID NO. 4), and MMP-9: 5′-[…]-3′ (SEQ ID NO. 5) and 5′-[…]-3′ (SEQ ID NO. 6). β-actin was used as an internal control.
as §1

[7] = tested on: BBN-induced bladder tumors; assay: BBN-induced mouse bladder cancer model (tumor incidence; PCNA and TUNEL indexes of tumors); settings: for Carcinoma, No. (%) / Preneoplastic lesions, No. (%): 0.05% BBN
Experimental: as §2, §3

[8] = harvested TCC-SUP tumors, real-time RT-PCR
[9] = ARKO male mice + DHT pellet 1.5 mg/mouse/90 days, age 20 weeks
[10] = ARKO male mice + DHT pellet, age 30 weeks
[11] = ARKO male mice + DHT pellet, age 40 weeks
[12] = male ARKO mice treated with BBN and DHT, 40 weeks
[13] = harvested TCC-SUP tumors, ASC-J9 50 mg/Kg

SMILES: CC(C)(O)C(=O)Nc1ccc([N+](=O)[O-])c(C(F)(F)F)c1 [HF, hydroxyflutamide]
- effect on growth (TCC-SUP cells): did not affect the growth
- reduction of the DHT effect on cell growth (TCC-SUP cells; TCC-SUP, 5 μM HF + 1 nM DHT, range given for both lines): 67-75%
- effect on cell proliferation (TCC-SUP cells; control (scrambled siRNA) TCC-SUP subline, 1 nM DHT and/or 5 μM HF): antagonized the DHT effect
- reduction of the DHT effect on cell growth (UMUC3 cells; UMUC3, 5 μM HF + 1 nM DHT, range given for both lines): 67-75%
- effect on growth (UMUC3 cells): did not affect the growth
- effect on cell proliferation (UMUC3 cells; control (scrambled siRNA) UMUC3 subline, 1 nM DHT and/or 5 μM HF): antagonized the DHT effect
- effect on growth [1]: did not affect the growth
- effect on DHT-induction of luciferase (AR; 5 μM HF + 1 nM DHT): clearly inhibited
- agonist activity alone (luciferase) (AR; 5 μM HF alone): only marginal agonist activity

SMILES: CCCCN(CCCCO)N=O [BBN, N-butyl-N-(4-hydroxybutyl)nitrosamine]
- frequency of bladder carcinomas by 40 weeks [2]: 30-100%
- hyperplasia in the bladder, incidence [3]: 17%
- invasive carcinoma incidence [3]: 50%
- preneoplastic bladder lesions incidence [3]: 50-67%
- preneoplastic lesions (hyperplasias or papillomas) incidence [3]: 75%

SMILES: CC(C)(C)NC(=O)[C@H]1CC[C@H]2[C@@H]3CC[C@H]4NC(=O)C=C[C@]4(C)[C@H]3CC[C@]12C [finasteride, Finasteride]
- development of BBN-induced bladder cancer [4]: only slightly suppressed

SMILES: CC(C)C(=O)Nc1ccc([N+](=O)[O-])c(C(F)(F)F)c1 [flutamide, Flutamide]
- tumorigenicity of AR-expressing (control-siRNA-transfected) bladder cancer ([5]; androgen deprivation (castration or flutamide pellet)): suppressed tumorigenicity
- development of AR-siRNA-expressing tumors ([5]; castration and flutamide treatment): little effect
- reduction in tumor size [6]: up to 12%
- tumor size vs. control mice (TCC-SUP xenograft tumors; castration and/or antiandrogen (flutamide pellet), at 16 weeks): statistically significantly smaller
- levels of angiogenic factors and metastasis-related factors (bFGF, VEGF, MMP-9) in tumors (TCC-SUP xenograft tumors; [8]): reduced

SMILES: C[C@]12CCC(=O)C[C@@H]1CC[C@@H]1[C@@H]2CC[C@]2(C)[C@@H](O)CC[C@@H]12 [DHT, dihydrotestosterone]
- effect on growth (TCC-SUP cells): did not affect the growth
- increase of cell growth (TCC-SUP cells; TCC-SUP, 1 nM DHT, vs. ETOH): 55%
- increase of cell growth (UMUC3 cells; UMUC3, 1 nM DHT, vs. ETOH): 45%
- effect on growth (UMUC3 cells): did not affect the growth
- Carcinoma, No. (%) [7, 9]: 0 (0) No. (%)
- Preneoplastic lesions, No. (%) [7, 9]: 0 (0) No. (%)
- Carcinoma, No. (%) [7, 10]: 1 (0)∵ No. (%)
- Preneoplastic lesions, No. (%) [7, 10]: 3 (38) No. (%)
- Carcinoma, No. (%) [7, 11]: 3 (25)‡‡ No. (%)
- Preneoplastic lesions, No. (%) [7, 11]: 5 (42) No. (%)
- carcinoma incidence [7, 12]: 25%
- preneoplastic lesions incidence [7, 12]: 42%
- effect on growth [1]: did not affect the growth

SMILES: COc1ccc(C=CC(=O)C=C(O)C=Cc2ccc(OC)c(OC)c2)cc1OC [ASC-J9, 5-hydroxy-1,7-bis(3,4-dimethoxyphenyl)-1,4,6-heptatrien-3-one]
- effect on DHT-simulated growth (TCC-SUP cells; TCC-SUP, 1 μM ASC-J9 + 1 nM DHT): inhibited
- effect on DHT-simulated growth (UMUC3 cells; UMUC3, 1 μM ASC-J9 + 1 nM DHT): inhibited
- latency of tumor formation ([5]; vs. control-siRNA cells with control treatment, treatment from tumor cell implantation, tumor positive at 40 mm3): substantially prolonged
- reduction in tumor size (TCC-SUP xenograft tumors; ASC-J9 50 mg/Kg intraperitoneal every other day, over 16 weeks of treatment): 58%
- apoptotic index of harvested tumors (TCC-SUP xenograft tumors; [13]): increased
- proliferation index of harvested tumors (TCC-SUP xenograft tumors; [13]): decreased
- levels of angiogenic factors and metastasis-related factors (bFGF, VEGF, MMP-9) in tumors (TCC-SUP xenograft tumors; [8]): reduced
- reduction of AR expression in tumors (TCC-SUP xenograft tumors; harvested TCC-SUP tumors, real-time RT-PCR, ASC-J9 50 mg/Kg): 39%
